In patent US10118934B2 (Wisconsin Alumni Research Foundation, priority 2014, dated 2018):
Values after ≈ are worked out from the molar mass of the structure shown. Values joined by “and” are separate entries in the source; they are usually repeats but may differ in a detail not shown here. Equal entries are not always repeated. “Also recorded” adds a separate entry of the source. Where two headings read alike, the source gives them in different places.

Columns and labels:
[1] = dynamic light scattering (DLS) detection of colloidal aggregation; assay type: physicochemical
Procedure: To evaluate aggregation by DLS compounds were diluted from concentrated stocks in DMSO into filtered 50 mM potassium phosphate, pH 7.0. The final DMSO concentration was 1%, and compound concentrations were usually 100 μM. Samples were run in duplicates. All measurements were made at room temperature using a DynaPro MS/X (Wyatt Technology) with a 55 mW laser at 826.6 nm. The laser power was 100%, and the detector angle was 90°.

[2] = target: T1, KpUGM (Klebsiella pneumoniae, UniProt Q48485); experiment: biochemical; assay type: binding; conditions: for Kd: probe displacement in competitive-binding FP assay
T1 construct: His-tag; made in house; host or cells: E. coli BL21(DE3)
T1 sequence (Q48485 24-384): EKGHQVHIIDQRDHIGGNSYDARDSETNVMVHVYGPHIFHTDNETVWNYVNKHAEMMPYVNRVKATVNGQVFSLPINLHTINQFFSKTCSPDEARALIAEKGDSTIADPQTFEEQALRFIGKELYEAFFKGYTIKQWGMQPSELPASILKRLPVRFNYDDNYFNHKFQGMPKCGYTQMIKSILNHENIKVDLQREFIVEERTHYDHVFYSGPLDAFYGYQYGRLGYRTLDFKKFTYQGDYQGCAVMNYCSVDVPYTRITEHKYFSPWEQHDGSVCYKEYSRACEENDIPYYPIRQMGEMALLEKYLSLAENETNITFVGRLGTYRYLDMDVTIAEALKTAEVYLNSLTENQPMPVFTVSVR
Procedure: A fluorescence polarization assay was used to measure ligand binding to KpUGM [Soltero-Higgin et al. 2004, Carlson et al. 2006] Tumbling of the fluorescein-UDP conjugated probe was measured on a Tecan M1000 microplate reader, exciting with 470 nm light and monitoring emission at 525 nm. Each condition was tested in triplicate in the presence of 220 nM KpUGM and 23.3 nM of the probe. Data was fit with a one-site binding nonlinear regression in GraphPad Prism 6.

[3] = target: T2, CdUGM (Corynebacterium diphtheriae, UniProt Q6NER4); experiment: HPLC-based UGM activity assay, homolog specificity; assay type: biochemical, C. diphtheriae; conditions: 100 μM compound
T2 construct: Open reading frame coding for residue 18-404 of CdUGM was amplified; His-tag with TEV cleavage site (N); made in house; host or cells: Escherichia coli ER2523
T2 sequence (Q6NER4 entry or part of it): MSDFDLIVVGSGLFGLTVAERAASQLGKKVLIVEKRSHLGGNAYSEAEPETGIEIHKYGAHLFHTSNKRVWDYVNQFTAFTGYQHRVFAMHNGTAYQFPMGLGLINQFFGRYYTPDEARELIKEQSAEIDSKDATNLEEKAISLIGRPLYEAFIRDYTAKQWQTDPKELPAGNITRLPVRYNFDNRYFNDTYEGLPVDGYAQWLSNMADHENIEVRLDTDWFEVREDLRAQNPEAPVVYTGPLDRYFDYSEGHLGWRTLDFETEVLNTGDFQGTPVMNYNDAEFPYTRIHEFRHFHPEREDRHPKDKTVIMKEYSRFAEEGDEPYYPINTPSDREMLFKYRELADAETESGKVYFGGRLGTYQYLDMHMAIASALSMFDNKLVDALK
Procedure: The specificity of in vitro UGM inhibition was assessed using purified recombinant UGM homologs. MtUGM and C. diptheriae UGM (CdUGM) share about 43% sequence identity with KpUGM, and 76% identity with each other. However, active site residues are highly conserved between the homologs. […] This trend was consistent for other analogs from this series (FIG. 14).
(§1) Enzymatic activity of recombinant UGM was monitored using an HPLC-based assay [Wesener et al., 2013; Lee et al. 1996; Zhang, Q. and H.-w. […] J. Amer. Chem. Soc., 2000. 122(38): p. 9065-9070]. Reactions were performed in duplicate at 22° C. in 50 mM NaH2PO4 buffer (pH 7) with 20 nM enzyme and 20 mM fresh sodium dithionite. Small molecules were added from DMSO stocks to a final concentration of 1% DMSO. Concentration of UDP-Galf [Marlow, A. L. and L. L. Kiessling, Improved Chemical Synthesis of UDP-Galactofuranose. Org Lett, 2001. 3(16): p. 2517-2519] was held constant at the Km of the UGM homolog being analyzed, except for generation of Lineweaver-Burk plots. Reaction time and substrate concentration were varied for Lineweaver-Burk analysis, and each condition was tested in triplicate. Quenched reactions were run through a CarboPac PA-100 column (Thermo Scientific) on an Agilent 1260 Infinity HPLC using an isocratic elution of 200 mM ammonium acetate (pH 8) to separate substrate and product peaks.

[4] = tested on: M. smegmatis; experiment: microbroth dilution assay with alamar Blue readout; assay type: cell-based, Mycobacterium smegmatis; conditions: liquid culture
[5] = target: T1, KpUGM; assay type: biochemical; conditions: for Ki: Lineweaver-Burk analysis, competitive inhibition; for effect of detergent on KpUGM inhibition: presence and absence of 0.025% Tween 80
Procedure: Anal Biochem, 1996: p. […] J Med Chem, 2002. 45(8): p. 1712-22] we repeated the assay in the presence of detergent (0.025% Tween 80).
as §1

[6] = target: T3, MtUGM (Mycobacterium tuberculosis, UniProt P9WIQ1); experiment: HPLC-based UGM activity assay, homolog specificity; assay type: biochemical; conditions: 100 μM compound
T3 sequence (P9WIQ1 whole entry): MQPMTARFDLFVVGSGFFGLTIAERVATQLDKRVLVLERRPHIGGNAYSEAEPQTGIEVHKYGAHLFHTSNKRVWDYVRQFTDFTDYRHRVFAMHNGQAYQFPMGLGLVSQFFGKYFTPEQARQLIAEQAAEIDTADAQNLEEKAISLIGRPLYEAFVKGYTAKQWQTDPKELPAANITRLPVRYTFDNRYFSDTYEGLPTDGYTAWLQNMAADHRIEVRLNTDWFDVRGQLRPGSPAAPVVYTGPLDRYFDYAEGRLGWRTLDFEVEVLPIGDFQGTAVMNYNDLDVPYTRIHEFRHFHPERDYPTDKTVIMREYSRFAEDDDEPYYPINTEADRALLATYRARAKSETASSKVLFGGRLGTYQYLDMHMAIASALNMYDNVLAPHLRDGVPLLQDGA

[7] = target: T3, MtUGM; conditions: compound library screened against MtUGM; cited from earlier work
[8] = tested on: HEK293 cells; experiment: cytotoxicity assay (CellTiter-Glo); assay type: cell-based
Procedure: Four thousand HEK 293T cells were added to wells of a sterile 96-well plate in 99 μl DMEM with 10% FBS. The plate was incubated for 24 hours at 37° C. with 5% CO2 to allow cells to attach. Cells were then treated with serially diluted small molecules or a vehicle control. The final DMSO concentration was 1% in each well. After 24 hours of incubation, viability of the treated cells was analyzed using CellTiter-Glo Luminescent Cell Viability Assay (Promega). Viability readings were normalized to DMSO control wells.

[9] = target: AmpC β-lactamase (Escherichia coli, UniProt P00811); assay type: biochemical; conditions: for inhibition of AmpC β-lactamase: 100 μM
AmpC β-lactamase, sequence (P00811 20-377): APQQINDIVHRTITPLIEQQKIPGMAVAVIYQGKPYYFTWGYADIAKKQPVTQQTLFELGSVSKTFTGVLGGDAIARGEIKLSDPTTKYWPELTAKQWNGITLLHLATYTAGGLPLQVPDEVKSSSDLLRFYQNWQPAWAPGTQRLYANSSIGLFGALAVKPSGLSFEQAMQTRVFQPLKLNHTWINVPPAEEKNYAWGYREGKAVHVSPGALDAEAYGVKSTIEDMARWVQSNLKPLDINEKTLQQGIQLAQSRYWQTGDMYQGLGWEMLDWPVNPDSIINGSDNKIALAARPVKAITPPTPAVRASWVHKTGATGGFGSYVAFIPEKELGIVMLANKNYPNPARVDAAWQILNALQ
Procedure: (§2) Compounds were tested for inhibition of Malate Dehydrogenase and AmpC β-lactamase as reported. Assays were performed in 50 mM potassium phosphate buffer, pH 7.0 at 25° C. For AmpC the molecules were mixed with buffer and CENTA substrate (50 μM; Tydock Pharma; Modena, Italy) to a final concentration of 1% DMSO (v/v). Reactions were initiated by addition of β-Lactamase (1 nM). Change in absorbance was monitored at 405 nm for 3 minutes. For Malate Dehydrogenase assay (MDH; Sigma Cat# M-7032), the molecule was mixed with buffer and 2 nM final concentration of the enzyme to a final concentration of 1% DMSO (v/v) and were incubated for five minutes. MDH reactions were started by adding substrates: Oxaloacetic acid (20 mM stock in buffer, prepared fresh daily; Sigma Cat# O4126) to a final concentration 200 μM and NADH (20 mM stock in buffer—prepare fresh daily; Sigma Cat# N-4505) to a final concentration 200 μM. Change in absorbance was monitored at […] for 2.5 minutes. Absorbance was monitored on an HP 8453 UV—visible spectrophotometer (Agilent, Technologies, Santa Clara, Calif.). The assays were performed in duplicate in methacrylate disposable cuvettes.

[10] = tested on: B strain E. coli; experiment: broth microdilution, control strain without UGM; assay type: cell-based; conditions: control strain without UGM ortholog
[11] = tested on: M. smegmatis; experiment: disk diffusion assay; conditions: solid media, 100 nmol per disk
Procedure: (§3) 1-8], and M. smegmatis were grown, the former two species in LB broth and the later in 7H9 Middlebrook media. Cells were diluted to an OD600 of 0.2 in fresh media and spread (100 μL) onto LB agar plates. Following an hour of incubation at 37° C., sterile cloning disks (3.2 mm diameter, Scienceware) impregnated with 100 nmol of compound or 2 μL of DMSO were placed on the surface of the inoculated solid media. Cells were incubated at 37° C. overnight. Plates with M. smegmatis were incubated 3 additional days at room temperature. Zones of inhibition were measured from the outer edge of the cloning disk to the border of cell growth.

[12] = tested on: B. subtilis; experiment: broth microdilution, control strain without UGM; assay type: cell-based; conditions: control strain without UGM ortholog
[13] = tested on: E. coli; experiment: disk diffusion assay; assay type: cell-based; conditions: solid media, tested concentration
Procedure: J Bacteriol, 1989. 171(3): p. […] Cells were incubated at 37° C. overnight.

[14] = tested on: B. subtilis; experiment: disk diffusion assay; conditions: solid media, 100 nmol per disk
Procedure: as §3

[15] = target: T4, Malate Dehydrogenase (MDH) (Thermus thermophilus, UniProt P10584); experiment: aggregation counter screen, malate dehydrogenase inhibition; assay type: biochemical
T4 construct: purchased Sigma M-7032
T4 sequence (P10584 whole entry): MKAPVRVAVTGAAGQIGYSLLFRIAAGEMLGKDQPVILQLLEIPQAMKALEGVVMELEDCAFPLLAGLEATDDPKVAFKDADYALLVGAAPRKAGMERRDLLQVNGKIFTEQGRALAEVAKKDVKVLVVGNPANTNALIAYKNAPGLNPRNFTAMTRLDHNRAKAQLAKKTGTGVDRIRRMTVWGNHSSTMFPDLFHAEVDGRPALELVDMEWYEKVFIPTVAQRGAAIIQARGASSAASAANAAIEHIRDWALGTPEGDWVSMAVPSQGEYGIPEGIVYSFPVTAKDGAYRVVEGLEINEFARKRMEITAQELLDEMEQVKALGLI
Procedure: as §2

O=C(O)CC1Sc2nnc(-c3cccs3)n2N=C1c1ccc(Cl)cc1 (stereo not shown) [Compound 22]
colloidal aggregation by DLS ([1]; 100 μM): did not show any aggregation; also recorded: do not aggregate; also recorded: no sign of colloidal aggregation
Kd [2]: 9 µM and 9.2 µM
inhibition of CdUGM [3]: 38%
M. smegmatis growth repression ([4]; tested concentrations): no M. smegmatis growth repression
Ki [5]: 7 µM
inhibition of MtUGM [6]: 19%

Cc1cc(-c2csc(NC(C)c3ccccc3)n2)c(C)n1CCC(=O)O (stereo not shown) [Compound 14]
binding compared with compound 10 ([2]; FP assay): slightly tighter binding than compound 10
Kd [2]: 4.5 µM
KpUGM inhibition compared with lead compound 10 ([5]; in vitro, dose-dependent): improved KpUGM inhibition; also recorded: increased dose-dependent KpUGM inhibition

O=C(O)CCC(=O)N1N=C(c2ccccc2)CC1c1cccs1 (stereo not shown) [Compound 3]
detection as hit in HTS [7]: not detected by HTS

Cc1ccc(C2=Nn3c(COc4ccc(Cl)cc4)nnc3SC2CC(=O)O)cc1 (stereo not shown) [Compound 24]
colloidal aggregation by DLS ([1]; 100 μM): form colloidal aggregates; also recorded: do form colloids
colloidal aggregation by DLS ([1]; high concentrations): show aggregation
Kd [2]: 9 µM and 9.2 µM
detection as hit in HTS [7]: not detected by HTS

O=C(O)CC1Sc2nnc(-c3ccco3)n2N=C1c1ccccc1 (stereo not shown) [Compound 6]
cellular toxicity ([8]; HEK293 cells): no significant cellular toxicity
colloidal aggregation by DLS ([1]; 100 μM): do not form detectable colloids; also recorded: do not aggregate; also recorded: no sign of colloidal aggregation
Kd [2]: 62 µM and 43 µM
inhibition of AmpC β-lactamase [9]: do not display any inhibition
effect of detergent on KpUGM inhibition ([5]; 100 μM compound): insensitive to detergent
Ki [5]: 78 µM

C=CCNc1nc(-c2cc(C)n(CCC(=O)O)c2C)cs1 [Compound 10]
colloidal aggregation by DLS ([1]; 100 μM): do not form detectable colloids; also recorded: no sign of colloidal aggregation
Kd [2]: 9 µM and 6 µM
inhibition of AmpC β-lactamase [9]: do not display any inhibition
effect of detergent on KpUGM inhibition ([5]; 100 μM compound): insensitive to detergent

O=C(O)CC1Sc2nnc(Cc3ccc(Br)cc3)n2N=C1c1ccc(Cl)cc1 (stereo not shown) [Compound 30]
difference between LD50 and MIC for M. smegmatis [8]: 5 fold
cellular toxicity ([8]; HEK293 cells): only mildly toxic
LD50 ([8]; HEK293 cells, 24 hours): ~100 µM
MIC [10]: > 500 µM
colloidal aggregation by DLS ([1]; 10 μM): does not aggregate
colloidal aggregation by DLS ([1]; 100 μM): forms colloidal aggregates; also recorded: do form colloids
colloidal aggregation by DLS ([1]; high concentrations): show aggregation
Kd [2]: 4.5 µM and 4.7 µM
zone of growth inhibition, comparison within series [11]: outperformed all other compounds of the series
inhibition of AmpC ([9]; high concentrations): non-specific inhibition
MIC [12]: 500 µM (≈ 239 µg/mL)
cell-killing in disk diffusion [13]: No cell-killing
MIC ([4]; 46 hours of growth, alamar blue): 20 µM (≈ 9.56 µg/mL)
zone of growth inhibition [14]: significantly smaller than that observed for M. smegmatis
KpUGM activity in presence of compound ([5]; 50 μM compound): no measurable activity
KpUGM activity in presence of compound ([5]; 100 μM compound): no measurable activity
selectivity between UGM homologs ([5]; KpUGM vs MtUGM and CdUGM): selective for KpUGM over MtUGM and CdUGM
Ki [5]: 1.1 µM
potency relative to compound 22 in vitro ([5]; from Ki values): about 5 fold
effect of detergent on MDH inhibition ([15]; addition of detergent): fully rescued by the addition of detergent; also recorded: reversible by the addition of detergent
IC50 ([15]; full dose response curve, no detergent): 55.7 µM
inhibition of MDH ([15]; high concentrations): non-specific inhibition

O=C(O)CC1Sc2nnc(Cc3ccc(F)cc3)n2N=C1c1ccccc1 (stereo not shown) [Compound 19]
colloidal aggregation by DLS ([1]; 100 μM): form colloidal aggregates; also recorded: do form colloids
colloidal aggregation by DLS ([1]; high concentrations): show aggregation
Kd [2]: 15 µM
